Test results as given in patent publication US20120114706A1, “Endorphin Therapy Compositions and Methods of Use Thereof” (priority 2008, published 2012).
Entries after “also recorded” stand apart in the source; their conditions may differ.

Key:
MADB106 cells = test: Pharmacologic modification of autonomic influence on immune system and lung metastasis; type: in vivo, rat; conditions: for PBMC NK cell activity / macrophage migration activity: 24 hours after MADB106 inoculation, naloxone 10, MP/MET 0.8, MLA 2.5 mg/kg or saline; for effect on β-EP elimination of tumor cell lung retention: β-EP transplanted Fischer rats, naloxone 10, MP/MET 0.8, MLA 2.5 mg/kg for 8 days
Method: 48 β-EP implanted (SC) male Fischer rats and 48 control (C) male Fischer rats were divided into 8 groups, treated with saline, Naloxone (10 mg/kg body weight), Metaproterenol (MP, 0.8 mg/kg body weight), or Methyllycaconitine (MLA, 2.5 mg/kg body weight), respectively. Animals were treated with drugs for 8 days. In the second day of drug injection, animals were inoculated with MADB106 cells (100,000/0.2 ml/rat). 24 hours after tumor cell inoculation, blood was collected by orbital puncture. Plasma was collected, and PBMCs were separated for migration assay and NK cytolytic assay. 7 days after tumor inoculation, blood was taken again by orbital puncture. Plasma was collected, and PBMCs were separated for migration assay and T cell cytolytic assay. After 6 weeks, animals were sacrificed, and brains, spleens and blood were frozen. Lungs were fixed in formalin and processed to H&E staining. […] However, 7 days after tumor inoculation, there isn't a clear pattern of T cell cytolytic activity and macrophage migration activity between groups (FIGS. 30B and 30D).
It was hypothesized that the beneficial effect of BEP neuron transplants on immune function is regulated through autonomic nervous system, and that central BEP modulate peripheral immune function by inhibiting the sympathetic activity and activating the parasympathetic activity. Metaproterenol (MET) is an agonist for β-receptors, which are a class of G protein-coupled receptors that are targets of the catecholamines, especially norepinephrine and epinephrine (Dokur et al. (2004) J Neuroimmunol 5:148-57; Page et al. (2008) J Neuroimmunol 193:113-9). Methyllycaconitine (MLA) is a selective antagonist of α7 nicotine acetylcholine receptor (α7 nAChR; Wu et al. (2011) Clin Cancer Res 17:3533-41). By injecting MET and MLA i.p., the stimulation of sympathetic nerves and inhibition of parasympathetic nerves was mimicked. Naloxone, an opiate receptor antagonist, was used to test whether BEP neuronal effects is acted via opiodergic receptor (Boyadjieva et al. (2006) Alcohol Clin Exp Res 30:1761-7). Forty-eight BEP neuron-transplanted Fischer rats and 48 control rats were divided into 8 groups and treated with saline, naloxone (10 mg/kg body weight), MET (0.8 mg/kg body weight), or MLA (2.5 mg/kg body weight) for 8 days (the doses used for these drugs are recognized as effective biological doses). A day after the first injection of these agents, animals were inoculated with MADB106 cells (100,000/0.2 mL/rat). Twenty-four hours after tumor cell inoculation, blood was collected by orbital puncture. Plasma was collected, and peripheral blood mononuclear cells (PBMC) were separated for migration assay and NK cytolytic assay. These animals continued receiving the blocker treatments for 7 days. After 4 weeks they were sacrificed, their lungs were fixed in formalin and processed to H&E staining for determination of cancer pathology. Brain tissues were processed for verification of the site and viability of BEP cell transplantation.

[1] = system: differentiated BEP neurons; test: PGE1-induced BEP release and POMC expression of differentiated neurons; type: cell-based, rat; conditions: PGE1 10 μM
Method: Enriched hypothalamic neurons were maintained in HDMEM, containing 10% FBS, for 3 weeks. Each week, cells were trypsinized and cultured. By the beginning of the third week, many spheres started to develop. These spheres were separated and dissociated into single cells by using trypsin/EDTA (Sigma) solution. They were then cultured in suspension or in poly-L-ornithine-coated 24-well plates (20,000 cells/well) in stem cell medium (DME F-12, […] (LIF), 0.1 μg/ml; L-glutamine, 10 mM; rat bFGF, 20 ng/ml; Mem amino acids solution, MAA, 0.5%; all of the chemicals were from Sigma except that bFGF was obtained from R&D Systems, Minneapolis, Minn.). Cells were cultured for 2 weeks, during which they grew and developed secondary spheres. Some of these cultures were used for immunocytochemical localization of nestin staining to determine whether they were neurospheres. These neurospheres were maintained in cultures for several months by regularly changing the medium and by splitting cells. The secondary spheres were re-suspended and cultured in poly-L-ornithine-coated 24-well plates (20,000/well; for physiological studies) or in poly-L-ornithine-coated 8-well permanox slides (1000 cells/slide; NaIg Nunc International Corp., IL; for histochemical studies). The differentiation experiments were performed by treating these cells for 1 week with PACAP (1-10 μM; SynPep) and dbcAMP (1-10 μM; Sigma) or a combination of both, and then in defined cell culture medium without the drugs for 1 week. At day 3, day 7 and day 14 the immunocytochemical, biochemical and/or real-time RT-PCR analyses were performed.
The immunoreactive β-endorphin levels in culture medium samples were measured by a radioimmunoassay system (De et al. (1994) J. Biol. Chem., 269:26697-26705). All the samples were dried and reconstituted in assay buffer and measured in duplicate in a single assay. The minimum amount of β-endorphin detectable was 3 pg/tube.
Expression levels of POMC mRNA in NSCs and differentiated cells were measured by a quantitative real-time RT-PCR (TaqMan assay) on an ABI PRISM 7700 Sequence Detector (PerkinElmer Applied Biosystems, Foster City, Calif.) as described previously (Chen et al. (2004) J. Neurochem., 88:1547-1554). […] The expression of POMC mRNA was detected using a POMC gene-specific primer pair and probe (TaqMan Gene Expression Assay, Rn00595020_ml; Applied Biosystems; Foster City, Calif.). […] The relative quantity of mRNA was calculated by relating the PCR threshold cycle obtained from the tested samples to relative standard curves degenerated from a serial dilution of cDNA prepared from the total RNA. The POMC mRNA level in each sample was normalized with the level of GAPDH mRNA which was measured by a control reagent (PerkinElmer Applied Biosystems). […]

[2] = system: rat hypothalamic neuronal stem cells (NSCs); test: Differentiation of hypothalamic neuronal stem cells to BEP neurons in culture; type: cell-based; conditions: agent alone, 0.1-10 μM
Method: Fetal brains were obtained from 17-day-old pregnant rats (Simonsen laboratories; Gilroy, […].). Mediobasal hypothalamic tissues from these rats were dissected out and cells from these tissues were dissociated, and mixed hypothalamic cell cultures were prepared as previously described (De et al. (1994) J. Biol. Chem., 269:26697-26705). Neurons were separated from glial cells by filtering mixed hypothalamic cells through a 48-μM nylon mesh. Then hypothalamic cells were sedimented at 400 g for 10 minutes; pellets were re-suspended in HEPES-buffered Dulbecco's Modified Eagle's Medium (HDMEM, 4.5 g/l glucose; Sigma, St. Louis, Mo.); and cells were cultured into poly-ornithine coated 25-cm^2 tissue culture flasks (2.5 million cells/flask) in HDMEM-containing 10% fetal bovine serum (FBS) and 1% penicillin/streptomycin. On day 2, the culture medium was replaced with HDMEM containing 10% FBS, 33.6 μg/ml uridine and 13.6 μg/ml 5-fluodeoxyuridine to prevent the overgrowth of astroglial cells. All of these chemicals were obtained from Sigma. On day 3, the culture medium was replaced with HDMEM-containing serum supplement (30 nM selenium, 20 nM progesterone, 1 μM iron-free human transferrin, 5 μM insulin, and 100 μM putrescin) and 1% penicillin/streptomycin. […] By this time, these cultures were approximately 85-90% neurons, as determined by MAP-2 positivity. […]

Compound | PBMC NK cell activity (MADB106 cells) | macrophage migration activity (MADB106 cells) | effect on β-EP elimination of tumor cell lung retention (MADB106 cells) | effect on neurosphere differentiation [2] | further results
CCN1C[C@]2(COC(=O)c3ccccc3N3C(=O)C[C@H](C)C3=O)CC[C@H](OC)[C@@]34[C@@H]5C[C@H]6[C@H](OC)[C@@H]5[C@](O)(C[C@@H]6OC)[C@@](O)([C@@H](OC)[C@H]23)[C@@H]14 [MLA, Methyllycaconitine] | reversed the effect of β-EP; also recorded: moderate or strong inhibitory effect | reversed the effect of β-EP; also recorded: moderate or strong inhibitory effect | stopped the effect of β-EP; also recorded: prevented, at various degrees | – | –
CC(C)NCC(O)c1cc(O)cc(O)c1 (stereo not drawn) [MP, Metaproterenol] | reversed the effect of β-EP | reversed the effect of β-EP | stopped the effect of β-EP | – | PBMC NK cell activity (MADB106 cells; listed as MET): moderate or strong inhibitory effect; macrophage migration activity (MADB106 cells; listed as MET): moderate or strong inhibitory effect; effect on β-EP elimination of tumor cell lung retention (MADB106 cells; listed as MET): prevented, at various degrees
CCCCC[C@H](O)/C=C/[C@H]1[C@H](O)CC(=O)[C@@H]1CCCCCCC(=O)O [PGE1, prostaglandin E1] | – | – | – | – | BEP release ([1]; cells at 1 week): only moderately enhanced; POMC expression ([1]; cells at 1 week): no effect; BEP-release response ([1]; cells at 2 weeks): significantly increased; POMC-expression response ([1]; cells at 2 weeks): significantly increased
CCCC(=O)Nc1ncnc2c1ncn2[C@@H]1O[C@@H]2COP(=O)(O)O[C@H]2[C@H]1OC(=O)CCC [dbcAMP, dibutyryl cAMP] | – | – | – | moderate effect | –
pituitary adenylate cyclase-activating peptide [PACAP] | – | – | – | moderate effect | –
